Measurements: the NIST ThermoML archive (doi:10.1016/j.jct.2014.01.004)
± gives the expanded uncertainty stated by the source.

Assays:
[1] = for viscosity / speed of sound / mass density: 101.33 kPa, Liquid; for viscosity: Falling or rolling sphere viscometry; for speed of sound: Sing-around technique in a fixed-path interferometer; for mass density: Vibrating tube method
[2] = Molar enthalpy of transition or fusion; settings: Crystal; DSC

SMILES | viscosity ([1]; 293.15 K) [mPa·s] | speed of sound ([1]; 293.15 K) [m/s] | mass density ([1]; 293.15 K) [kg/m3] | viscosity ([1]; 298.15 K) [mPa·s] | speed of sound ([1]; 298.15 K) [m/s] | mass density ([1]; 298.15 K) [kg/m3] | viscosity ([1]; 303.15 K) [mPa·s] | speed of sound ([1]; 303.15 K) [m/s] | mass density ([1]; 303.15 K) [kg/m3] | viscosity ([1]; 308.15 K) [mPa·s] | speed of sound ([1]; 308.15 K) [m/s] | mass density ([1]; 308.15 K) [kg/m3] | viscosity ([1]; 313.15 K) [mPa·s] | speed of sound ([1]; 313.15 K) [m/s] | mass density ([1]; 313.15 K) [kg/m3] | viscosity ([1]; 318.15 K) [mPa·s] | speed of sound ([1]; 318.15 K) [m/s] | mass density ([1]; 318.15 K) [kg/m3] | viscosity ([1]; 323.15 K) [mPa·s] | speed of sound ([1]; 323.15 K) [m/s] | other results
CC(=O)[O-].[NH3+]CCCO [3-hydroxypropylammonium acetate] | 4261.7 ± 650 | 1779.8 ± 5.2 | 1114.58 ± 6.7 | 2827 ± 390 | 1770.8 ± 5.2 | 1112.02 ± 6.7 | 1937 ± 240 | 1761.9 ± 5.2 | 1109.46 ± 6.7 | 1348.5 ± 150 | 1753.3 ± 5.2 | 1106.91 ± 6.7 | 970.9 ± 100 | 1745.2 ± 5.2 | 1104.36 ± 6.6 | 714.44 ± 66 | 1736.4 ± 5.2 | 1101.8 ± 6.6 | 526 ± 44 | 1727.8 ± 5.2 | mass density ([1]; 323.15 K): 1099.24 ± 6.5 kg/m3; viscosity ([1]; 328.15 K): 400.11 ± 30 mPa·s; speed of sound ([1]; 328.15 K): 1719.3 ± 5.2 m/s; mass density ([1]; 328.15 K): 1096.68 ± 6.5 kg/m3; viscosity ([1]; 333.15 K): 305.97 ± 20 mPa·s; speed of sound ([1]; 333.15 K): 1710.3 ± 5.2 m/s; mass density ([1]; 333.15 K): 1094.13 ± 6.5 kg/m3; viscosity ([1]; 338.15 K): 238.21 ± 14 mPa·s; speed of sound ([1]; 338.15 K): 1702.8 ± 5.2 m/s; mass density ([1]; 338.15 K): 1091.59 ± 6.5 kg/m3; viscosity ([1]; 343.15 K): 190.4 ± 9.9 mPa·s; speed of sound ([1]; 343.15 K): 1693.6 ± 5.2 m/s; mass density ([1]; 343.15 K): 1089.03 ± 6.4 kg/m3; Glass transition temperature ([1]; DTA): -26.00 ± 4 °C
O=C([O-])C(F)(F)F.[NH3+]CCCO [3-hydroxypropylammonium trifluoroacetate] | 1430.2 ± 170 | 1487.9 ± 7.1 | 1311.44 ± 19 | 970.33 ± 100 | 1476.5 ± 7.1 | 1307.81 ± 19 | 677.32 ± 64 | 1465.5 ± 7.1 | 1304.2 ± 19 | 483.03 ± 41 | 1454.9 ± 7.1 | 1300.58 ± 19 | 352.31 ± 26 | 1444.5 ± 7.1 | 1296.96 ± 19 | 262.07 ± 17 | 1434.3 ± 7.1 | 1293.34 ± 18 | 198.79 ± 12 | 1424.2 ± 7.1 | mass density ([1]; 323.15 K): 1289.72 ± 18 kg/m3; viscosity ([1]; 328.15 K): 153.05 ± 8.1 mPa·s; speed of sound ([1]; 328.15 K): 1413.9 ± 7.1 m/s; mass density ([1]; 328.15 K): 1286.1 ± 18 kg/m3; viscosity ([1]; 333.15 K): 119.86 ± 5.8 mPa·s; speed of sound ([1]; 333.15 K): 1403.6 ± 7.1 m/s; mass density ([1]; 333.15 K): 1282.49 ± 18 kg/m3; viscosity ([1]; 338.15 K): 94.92 ± 4.3 mPa·s; speed of sound ([1]; 338.15 K): 1393.2 ± 7.1 m/s; mass density ([1]; 338.15 K): 1278.88 ± 18 kg/m3; viscosity ([1]; 343.15 K): 76.72 ± 3.3 mPa·s; speed of sound ([1]; 343.15 K): 1382.8 ± 7.1 m/s; mass density ([1]; 343.15 K): 1275.25 ± 18 kg/m3; Glass transition temperature ([1]; DTA): -28.00 ± 4 °C
CCC[NH3+].O=C[O-] [propylammonium formate] | 96.77 ± 3.7 | 1553.1 ± 5.2 | 996.18 ± 5.4 | 78.6 ± 2.8 | 1542.7 ± 5.2 | 993.47 ± 5.3 | 63.58 ± 2.1 | 1532.4 ± 5.1 | 990.77 ± 5.3 | 52.67 ± 1.7 | 1522.2 ± 5.1 | 988.09 ± 5.3 | 43.97 ± 1.4 | 1512 ± 5.1 | 985.42 ± 5.2 | 37.16 ± 1.2 | 1501.8 ± 5.1 | 982.75 ± 5.2 | 31.43 ± 1 | 1491.7 ± 5.1 | mass density ([1]; 323.15 K): 980.1 ± 5.2 kg/m3; viscosity ([1]; 328.15 K): 26.92 ± 0.88 mPa·s; speed of sound ([1]; 328.15 K): 1481.6 ± 5.1 m/s; mass density ([1]; 328.15 K): 977.45 ± 5.2 kg/m3; viscosity ([1]; 333.15 K): 23.32 ± 0.77 mPa·s; speed of sound ([1]; 333.15 K): 1471.7 ± 5.1 m/s; mass density ([1]; 333.15 K): 974.8 ± 5.1 kg/m3; viscosity ([1]; 338.15 K): 20.18 ± 0.66 mPa·s; speed of sound ([1]; 338.15 K): 1461.8 ± 5.1 m/s; mass density ([1]; 338.15 K): 972.15 ± 5.1 kg/m3; viscosity ([1]; 343.15 K): 17.57 ± 0.58 mPa·s; speed of sound ([1]; 343.15 K): 1452 ± 5.1 m/s; mass density ([1]; 343.15 K): 969.49 ± 5.1 kg/m3; Normal melting temperature ([1]; Crystal, DTA): 34.00 ± 4 °C; Molar enthalpy of transition or fusion [2]: 2.17 ± 0.12 kcal/mol
CC(=O)[O-].CCC[NH3+] [propylammonium acetate] | 932.22 ± 95 | 1517.1 ± 5.1 | 989.97 ± 5.3 | 627.41 ± 56 | 1508 ± 5.1 | 986.91 ± 5.3 | 435.42 ± 34 | 1497.1 ± 5.1 | 983.85 ± 5.2 | 309.95 ± 21 | 1487.6 ± 5.1 | 980.77 ± 5.2 | 226.35 ± 13 | 1477 ± 5.1 | 977.69 ± 5.2 | 167.69 ± 8.2 | 1467.8 ± 5.1 | 974.6 ± 5.1 | 128.15 ± 5.5 | 1457.5 ± 5.1 | mass density ([1]; 323.15 K): 971.5 ± 5.1 kg/m3; viscosity ([1]; 328.15 K): 99.03 ± 3.8 mPa·s; speed of sound ([1]; 328.15 K): 1447.9 ± 5.1 m/s; mass density ([1]; 328.15 K): 968.4 ± 5.1 kg/m3; viscosity ([1]; 333.15 K): 78.03 ± 2.7 mPa·s; speed of sound ([1]; 333.15 K): 1437.3 ± 5.1 m/s; mass density ([1]; 333.15 K): 965.3 ± 5 kg/m3; viscosity ([1]; 338.15 K): 61.96 ± 2 mPa·s; speed of sound ([1]; 338.15 K): 1427.4 ± 5.1 m/s; mass density ([1]; 338.15 K): 962.17 ± 5 kg/m3; viscosity ([1]; 343.15 K): 50.02 ± 1.6 mPa·s; speed of sound ([1]; 343.15 K): 1417.5 ± 5.1 m/s; mass density ([1]; 343.15 K): 959.03 ± 5 kg/m3; Glass transition temperature ([1]; DTA): -26.00 ± 4 °C
O=C[O-].[NH3+]CCCO [3-hydroxypropylammonium formate] | 339.04 ± 23 | 1824.3 ± 5.2 | 1148.29 ± 7.2 | 257.15 ± 16 | 1816.3 ± 5.2 | 1145.84 ± 7.1 | 198.39 ± 11 | 1808.3 ± 5.2 | 1143.39 ± 7.1 | 154.49 ± 7.3 | 1800.5 ± 5.2 | 1140.95 ± 7.1 | 122.56 ± 5.2 | 1792.3 ± 5.2 | 1138.53 ± 7 | 98.17 ± 3.8 | 1785.2 ± 5.2 | 1136.12 ± 7 | 79.84 ± 2.8 | 1776.4 ± 5.2 | mass density ([1]; 323.15 K): 1133.73 ± 7 kg/m3; viscosity ([1]; 328.15 K): 65.37 ± 2.2 mPa·s; speed of sound ([1]; 328.15 K): 1768.3 ± 5.2 m/s; mass density ([1]; 328.15 K): 1131.34 ± 7 kg/m3; viscosity ([1]; 333.15 K): 53.98 ± 1.7 mPa·s; speed of sound ([1]; 333.15 K): 1760.4 ± 5.2 m/s; mass density ([1]; 333.15 K): 1128.97 ± 6.9 kg/m3; viscosity ([1]; 338.15 K): 45.36 ± 1.5 mPa·s; speed of sound ([1]; 338.15 K): 1752.5 ± 5.2 m/s; mass density ([1]; 338.15 K): 1126.61 ± 6.9 kg/m3; viscosity ([1]; 343.15 K): 38.38 ± 1.3 mPa·s; speed of sound ([1]; 343.15 K): 1744.7 ± 5.2 m/s; mass density ([1]; 343.15 K): 1124.25 ± 6.9 kg/m3; Glass transition temperature ([1]; DTA): -24.00 ± 4 °C
